Where a SMILES comes first, the peptide text is derived from it.
Key:
EV71-2A^pro [1] = biological target: T1, EV71-2A^pro (Human enterovirus 71, UniProt Q66478); assay: EV71-2Apro inhibition assay; assay type: biochemical
T1 sequence (Q66478 863-1012 limits assumed): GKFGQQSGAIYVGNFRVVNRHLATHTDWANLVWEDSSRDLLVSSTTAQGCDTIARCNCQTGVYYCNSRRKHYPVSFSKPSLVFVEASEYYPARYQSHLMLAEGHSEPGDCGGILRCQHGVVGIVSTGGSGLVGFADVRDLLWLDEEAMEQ

EV71-2A^pro [2] = biological target: T1, EV71-2A^pro; assay: Kinetic activity assay; assay type: biochemical; conditions: from Km values, relative to native substrate (Km 21.3 μM)

| Compound | IC50 (EV71-2A^pro [1]) [µM] | higher affinity for EV71-2A^pro than the native substrate (EV71-2A^pro [2]) [fold] |
| --- | --- | --- |
| CC[C@H](C)[C@H](NC(=O)[C@H](CCCCN)NC(=O)[C@H](CC(=O)O)NC(=O)[C@@H](N)CCCNC(=N)N)C(=O)NCC(=O)N[C@@H](Cc1ccccc1)C(=O)N[C@@H](CCCNC(=N)N)C(=O)NCC(=O)N[C@@H](CCCCN)C(=O)N[C@@H](Cc1ccccc1)C(=O)NCC(=O)N[C@@H](CCC(N)=O)C(=O)O [Peptide II] (H-RDKIGFRGKFGQ-OH) | 12.1 ± 1.2 |  |
| Dabcyl-RDKIGFRGKFGQDE-Edans-NH2 [Pseudosubstrate II] |  | 3 |
